Measurements from ChEMBL document CHEMBL1201862, “PubChem BioAssay data set” (2004).
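Grown in 96-well plates, cells were treated for 48 hours with each compound at five concentrations. Insufficient inhibition: endpoint recorded as highest concentration tested. GI50 marks 50% less growth.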 The source made the active and inactive calls. Rule as the data show it: active = GI50 up to about 1.1 µM and inactive = higher.

Assays:
Experiment in all cases: NCI anticancer screen, dose series, 48 h
[1] = system: EKVX
[2] = system: HCC 2998
[3] = system: HCT-116
[4] = system: HCT-15
[5] = system: HOP-92
[6] = system: IGROV-1
[7] = system: KM12
[8] = system: MCF7
[9] = system: MDA-MB-435
[10] = system: MOLT-4
[11] = system: NCI-H226
[12] = system: NCI-H23
[13] = system: NCI-H522
[14] = system: NCI/ADR-RES
[15] = system: OVCAR-3
[16] = system: SK-OV-3
[17] = system: SNB-75
[18] = system: SR
[19] = system: UACC-257
[20] = system: UACC-62

Compound	GI50 [1]	GI50 [2]	GI50 [3]	GI50 [4]	GI50 [5]	GI50 [6]	GI50 [7]	GI50 [8]	GI50 [9]	GI50 [10]	GI50 [11]	GI50 [12]	GI50 [13]	GI50 [14]	GI50 [15]	GI50 [16]	GI50 [17]	GI50 [18]	GI50 [19]	GI50 [20]
COC(=O)c1ccc(CCc2cc(O)ccc2O)cc1	13.3 µM (inactive)	23.9 µM (inactive)	10.4 µM (inactive)	8.79 µM	9.25 µM (inactive)	6.49 µM (inactive)	5.52 µM (inactive)	7.5 µM (inactive)	6.08 µM (inactive)	1.77 µM (inactive)	9.29 µM (inactive)	13.6 µM (inactive)	0.706 µM (active)	12.8 µM (inactive)	2.96 µM (inactive)	38 µM (inactive)	3.77 µM (inactive)	2.44 µM (inactive)	13 µM (inactive)	14.8 µM (inactive)
CCCCCCOP(=O)(OCCCCCC)OC(C(=O)OC)C(F)(F)F (stereo not given)	> 100 µM (inactive)	> 100 µM (inactive)	> 100 µM (inactive)	> 100 µM	> 100 µM (inactive)	> 100 µM (inactive)	> 100 µM (inactive)	> 100 µM (inactive)	> 100 µM (inactive)	> 100 µM (inactive)	> 100 µM (inactive)	> 100 µM (inactive)	> 100 µM (inactive)	> 100 µM (inactive)	> 100 µM (inactive)	> 100 µM (inactive)	> 100 µM (inactive)	> 100 µM (inactive)	> 100 µM (inactive)	> 100 µM (inactive)
CCCCSc1n/c(=C\c2ccc(N(C)C)cc2)c2nnnn12	> 100 µM (inactive)	> 100 µM (inactive)	> 100 µM (inactive)	> 100 µM	> 100 µM (inactive)	> 100 µM (inactive)	> 100 µM (inactive)	> 100 µM (inactive)	> 100 µM (inactive)	> 100 µM (inactive)	> 100 µM (inactive)	> 100 µM (inactive)	> 100 µM (inactive)	> 100 µM (inactive)	> 100 µM (inactive)	> 100 µM (inactive)	> 100 µM (inactive)	> 100 µM (inactive)	> 100 µM (inactive)	> 100 µM (inactive)
Cc1nc(N/N=C/c2ccccc2Cl)[nH]c(=O)c1CCO	86.9 µM (inactive)	> 100 µM (inactive)	38.8 µM (inactive)	81.1 µM	21.5 µM (inactive)	34 µM (inactive)	59.7 µM (inactive)	36.2 µM (inactive)	> 100 µM (inactive)	> 100 µM (inactive)	> 100 µM (inactive)	35.8 µM (inactive)	17.9 µM (inactive)	61.1 µM (inactive)	19.6 µM (inactive)	23.1 µM (inactive)	17.2 µM (inactive)	> 100 µM (inactive)	> 100 µM (inactive)	34.4 µM (inactive)
COC1(OC)C2(Cl)CCC1(Cl)C(OC(C)=O)C2 (stereo not given)	> 100 µM (inactive)	> 100 µM (inactive)	> 100 µM (inactive)	> 100 µM	> 100 µM (inactive)	> 100 µM (inactive)	> 100 µM (inactive)	> 100 µM (inactive)	> 100 µM (inactive)	> 100 µM (inactive)	> 100 µM (inactive)	> 100 µM (inactive)	> 74.1 µM (inactive)	> 100 µM (inactive)	> 100 µM (inactive)	> 100 µM (inactive)	> 100 µM (inactive)	> 100 µM (inactive)	> 100 µM (inactive)	> 90.2 µM (inactive)
CCSC(=O)/C=C1\CN(C(=O)OC(C)(C)C)C1C(=O)OC(C)(C)C (stereo not given)	10.5 µM (inactive)	5.38 µM (inactive)	1.55 µM (inactive)	1.52 µM	2.59 µM (inactive)	4.28 µM (inactive)	3.38 µM (inactive)	2.38 µM (inactive)	2.74 µM (inactive)	1.71 µM (inactive)	12.7 µM (inactive)	2.6 µM (inactive)	2.49 µM (inactive)	2.74 µM (inactive)	2.42 µM (inactive)	13.8 µM (inactive)	2.59 µM (inactive)	0.684 µM (active)	4.21 µM (inactive)	3.2 µM (inactive)
